Experimental data reported in PubChem BioAssay (NCI).
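GI50: concentration for 50% inhibition of growth. TGI marks complete inhibition of growth.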

Key:
Assay in all cases: NCI anticancer screen, dose series, 384-well format
MALME-3M melanoma = system: MALME-3M melanoma
SF-268 CNS = system: SF-268 CNS
SK-MEL-5 melanoma = system: SK-MEL-5 melanoma
ACHN renal = system: ACHN renal
SNB-75 CNS = system: SNB-75 CNS
NCI-H322M lung = system: NCI-H322M lung
SR leukemia = system: SR leukemia
SF-295 CNS = system: SF-295 CNS
HOP-92 NSCLC = system: HOP-92 NSCLC
COLO 205 colon = system: COLO 205 colon
RXF 393 renal = system: RXF 393 renal
TK-10 renal = system: TK-10 renal
NCI-H226 lung = system: NCI-H226 lung
K-562 leukemia = system: K-562 leukemia
CAKI-1 renal = system: CAKI-1 renal
HS 578T breast = system: HS 578T breast
UO-31 renal = system: UO-31 renal
NCI-H522 lung = system: NCI-H522 lung
SNB-19 CNS = system: SNB-19 CNS
T-47D breast = system: T-47D breast
DU-145 prostate = system: DU-145 prostate
UACC-62 melanoma = system: UACC-62 melanoma
U251 glioblastoma = system: U251 glioblastoma
SK-OV-3 ovarian = system: SK-OV-3 ovarian
NCI/ADR-RES ovarian = system: NCI/ADR-RES ovarian
A549 NSCLC = system: A549 NSCLC
A498 renal = system: A498 renal
OVCAR-3 ovarian = system: OVCAR-3 ovarian
MDA-MB-468 breast = system: MDA-MB-468 breast
MOLT-4 leukemia = system: MOLT-4 leukemia
M14 melanoma = system: M14 melanoma
MDA-MB-231 breast = system: MDA-MB-231 breast
KM12 colon = system: KM12 colon
MDA-MB-435 melanoma = system: MDA-MB-435 melanoma
786-0 renal = system: 786-0 renal
LOX IMVI melanoma = system: LOX IMVI melanoma
MCF7 breast = system: MCF7 breast
SF-539 CNS = system: SF-539 CNS
HOP-62 NSCLC = system: HOP-62 NSCLC
OVCAR-4 ovarian = system: OVCAR-4 ovarian
EKVX NSCLC = system: EKVX NSCLC
OVCAR-5 ovarian = system: OVCAR-5 ovarian
PC-3 prostate = system: PC-3 prostate
HCT-15 colon = system: HCT-15 colon
IGROV1 ovarian = system: IGROV1 ovarian
RPMI-8226 leukemia = system: RPMI-8226 leukemia
SW-620 colon = system: SW-620 colon
SK-MEL-28 melanoma = system: SK-MEL-28 melanoma
NCI-H23 lung = system: NCI-H23 lung
HT29 colon = system: HT29 colon
BT-549 breast = system: BT-549 breast
OVCAR-8 ovarian = system: OVCAR-8 ovarian
HCC-2998 colon = system: HCC-2998 colon
CCRF-CEM leukemia = system: CCRF-CEM leukemia
NCI-H460 NSCLC = system: NCI-H460 NSCLC
SN12C renal = system: SN12C renal

`CC(C)(C(=O)NCC(F)(F)C(F)(F)F)C(=O)N[C@@H]1C(=O)Nc2ccccc2-c2ccccc21` gave a GI50 (MALME-3M melanoma) of 22.2 µM, a TGI (MALME-3M melanoma) greater than 100 µM and a GI50 (SF-268 CNS) greater than 100 µM. The TGI (SF-268 CNS) was greater than 100 µM, the GI50 (SK-MEL-5 melanoma) was 39.1 µM and the TGI (SK-MEL-5 melanoma) was greater than 100 µM. It also gave a GI50 (ACHN renal) of 54.8 µM, a TGI (ACHN renal) greater than 100 µM and a GI50 (SNB-75 CNS) of 63.6 µM. It also gave a TGI (SNB-75 CNS) greater than 100 µM, a GI50 (NCI-H322M lung) greater than 100 µM and a TGI (NCI-H322M lung) greater than 100 µM. The GI50 (SR leukemia) was 23.3 µM, the TGI (SR leukemia) was greater than 100 µM and the GI50 (SF-295 CNS) was 52.5 µM. It also gave a TGI (SF-295 CNS) greater than 100 µM, a GI50 (HOP-92 NSCLC) of 32.5 µM and a TGI (HOP-92 NSCLC) greater than 100 µM. The GI50 (COLO 205 colon) was 44.6 µM, the TGI (COLO 205 colon) was greater than 100 µM and the GI50 (RXF 393 renal) was 27.3 µM. It also gave a TGI (RXF 393 renal) greater than 100 µM, a GI50 (TK-10 renal) of 88.7 µM and a TGI (TK-10 renal) greater than 100 µM. The GI50 (NCI-H226 lung) was 45.8 µM, the TGI (NCI-H226 lung) was greater than 100 µM and the GI50 (K-562 leukemia) was 44.8 µM. The TGI (K-562 leukemia) was greater than 100 µM, the GI50 (CAKI-1 renal) was greater than 100 µM and the TGI (CAKI-1 renal) was greater than 100 µM. The GI50 (HS 578T breast) was 32 µM, the TGI (HS 578T breast) was greater than 100 µM and the GI50 (UO-31 renal) was 74.6 µM. It also gave a TGI (UO-31 renal) greater than 100 µM, a GI50 (NCI-H522 lung) of 42.4 µM and a TGI (NCI-H522 lung) greater than 100 µM. The GI50 (SNB-19 CNS) was 63.5 µM, the TGI (SNB-19 CNS) was greater than 100 µM and the GI50 (T-47D breast) was 6.31 µM. It also gave a TGI (T-47D breast) of 48.1 µM, a GI50 (DU-145 prostate) of 55.9 µM and a TGI (DU-145 prostate) greater than 100 µM. For the same molecule, the GI50 (UACC-62 melanoma) was 20.4 µM, the TGI (UACC-62 melanoma) was greater than 100 µM and the GI50 (U251 glioblastoma) was greater than 100 µM. The TGI (U251 glioblastoma) was greater than 100 µM, the GI50 (SK-OV-3 ovarian) was 90.8 µM and the TGI (SK-OV-3 ovarian) was greater than 100 µM. For the same molecule, the GI50 (NCI/ADR-RES ovarian) was 30 µM, the TGI (NCI/ADR-RES ovarian) was greater than 100 µM and the GI50 (A549 NSCLC) was 33.6 µM. It also gave a TGI (A549 NSCLC) greater than 100 µM, a GI50 (A498 renal) of 47 µM and a TGI (A498 renal) greater than 100 µM. The GI50 (OVCAR-3 ovarian) was 36.3 µM, the TGI (OVCAR-3 ovarian) was greater than 100 µM and the TGI (MDA-MB-468 breast) was 33.3 µM. It also gave a GI50 (MOLT-4 leukemia) of 11.5 µM, a TGI (MOLT-4 leukemia) of 25.6 µM and a GI50 (M14 melanoma) of 89.2 µM. For the same molecule, the TGI (M14 melanoma) was greater than 100 µM, the GI50 (MDA-MB-231 breast) was 51.2 µM and the TGI (MDA-MB-231 breast) was greater than 100 µM. It also gave a GI50 (KM12 colon) of 53.2 µM, a TGI (KM12 colon) greater than 100 µM and a GI50 (MDA-MB-435 melanoma) of 92.7 µM. For the same molecule, the TGI (MDA-MB-435 melanoma) was greater than 100 µM, the GI50 ([…]-0 renal) was 58.5 µM and the TGI (786-0 renal) was greater than 100 µM. It also gave a GI50 (LOX IMVI melanoma) greater than 100 µM, a TGI (LOX IMVI melanoma) greater than 100 µM and a GI50 (MCF7 breast) of 22 µM. It also gave a TGI (MCF7 breast) greater than 100 µM, a GI50 (SF-539 CNS) greater than 100 µM and a TGI (SF-539 CNS) greater than 100 µM. The GI50 (HOP-62 NSCLC) was 74.6 µM, the TGI (HOP-62 NSCLC) was greater than 100 µM and the GI50 (OVCAR-4 ovarian) was 17.5 µM. For the same molecule, the TGI (OVCAR-4 ovarian) was 76.3 µM, the GI50 (EKVX NSCLC) was 29 µM and the TGI (EKVX NSCLC) was greater than 100 µM. For the same molecule, the GI50 (OVCAR-5 ovarian) was greater than 100 µM, the TGI (OVCAR-5 ovarian) was greater than 100 µM and the GI50 (PC-3 prostate) was 41.2 µM. For the same molecule, the TGI (PC-3 prostate) was greater than 100 µM, the GI50 (HCT-15 colon) was 43.3 µM and the TGI (HCT-15 colon) was greater than 100 µM. The GI50 (IGROV1 ovarian) was 92.1 µM, the TGI (IGROV1 ovarian) was greater than 100 µM and the GI50 (RPMI-8226 leukemia) was 18.8 µM. It also gave a TGI (RPMI-8226 leukemia) of 76.4 µM, a GI50 (SW-620 colon) greater than 100 µM and a TGI (SW-620 colon) greater than 100 µM. The GI50 (SK-MEL-28 melanoma) was 46.9 µM, the TGI (SK-MEL-28 melanoma) was greater than 100 µM and the GI50 (NCI-H23 lung) was 41.1 µM. For the same molecule, the TGI (NCI-H23 lung) was greater than 100 µM, the GI50 (HT29 colon) was 37.2 µM and the TGI (HT29 colon) was greater than 100 µM. For the same molecule, the GI50 (BT-549 breast) was 39.2 µM, the TGI (BT-549 breast) was greater than 100 µM and the GI50 (OVCAR-8 ovarian) was 69.9 µM. The TGI (OVCAR-8 ovarian) was greater than 100 µM, the GI50 (HCC-2998 colon) was 24 µM and the TGI (HCC-2998 colon) was greater than 100 µM. It also gave a GI50 (CCRF-CEM leukemia) of 18.6 µM, a TGI (CCRF-CEM leukemia) of 69.8 µM and a GI50 (NCI-H460 NSCLC) of 46 µM. For the same molecule, the TGI (NCI-H460 NSCLC) was greater than 100 µM, the GI50 (SN12C renal) was greater than 100 µM and the TGI (SN12C renal) was greater than 100 µM.
